Patent US11672799B2, “1,4-disubstituted pyridazine quinolne analogs there of and methods for treating SMN-deficiency-related conditions” (Novartis AG, priority 2013, dated 2023)
Read-outs that look alike come from different tables or passages of the source. One block for each compound: values may come before it.

Test system: SMN protein
Experiment: cellular SMN ELISA (SMN protein elevation) in myoblast cell line from SMNdelta7 mouse model
Assay type: cell-based
Description: A cellular SMN ELISA was used to measure the effects of low molecular weight compounds on SMN protein elevation. Cells from a myoblast cell line derived from the SMNdelta7 mouse model (kind gift from Steve Burden, NYU) were seeded into a 384-well plate at a density of 3000 cells/well and treated with compounds for 24 hours. ELISA capture plates were prepared by coating 384-well plates (Immulon 4HBX) with 0.5 ug/mL of anti-SMN mAb (BD Science, Catalog number 610647) at 4° C. overnight. The plates were washed 5 times with 110 uL of PBS-Tween (0.05% Tween-20, PBST), blocked with 100 uL of 1% BSA in PBST for 2 hours and washed (5 times) with 100 uL of PBST. After 24 hours of compound treatment cells were lysed in a modified RIPA-buffer, on ice for 1 hour. 20 uL of lysate and 20 uL of 1% BSA were then added to the ELISA capture plates and incubated at 4° C. overnight. Plates were washed (5 times) with PBST and then incubated with 1:100 dilution of primary rabbit anti-SMN polyclonal antibody (Santa cruz, Catalog number SC-15320) at room temperature for 1 hour and subsequently washed (5 times) with 110 uL of PBST. This was followed by addition of 1:100 Goat anti-Rabbit IgG-HRP linked (Cell Signaling, Catalog number 7074) secondary antibody for 1 hour. Plates were then washed with PBST and incubated with 40 uL TMB substrate (Cell Signaling, Catalog number 7004 L) at room temperature for 1-10 minutes with shaking. The reaction was stopped by addition of 40 uL of stop solution (Cell signaling, Catalog number 7002 L) and absorption was measured at 450 nm. Data was reported as fold activation over DMSO control, and EC50.
ELISA assay condition 1: compound concentration range 20 nM-10 uM; ELISA assay condition 2: compound concentration 100 pM-10 uM. Data generated in Biological Example 1 using ELISA conditions 1 or 2.

[1] = Biological Example 1, SMN ELISA, SMNdelta7 mouse myoblasts, 24 hours compound treatment
[2] = Biological Example 1, SMN ELISA, SMNdelta7 mouse myoblasts, 24 hours compound treatment, read-out: SMN Activity (EC50)
[3] = comparison of unsubstituted, ortho-hydroxy and ortho-alkoxy pyridazines, as in Biological Example 1
[4] = comparison of unsubstituted, ortho-hydroxy and ortho-alkoxy pyridazines, as in Biological Example 1, read-out: SMN ELISA EC50

Compound: Cc1cc(Cl)c2cc(-c3ccc(N(C)C4CC(C)(C)NC(C)(C)C4)nn3)c(O)cc2n1 [Preparation 11, 4-chloro-2-methyl-6-(6-(methyl(2,2,6,6-tetramethylpiperidin-4-yl)amino)pyridazin-3-yl)quinolin-7-ol]
SMN Activity (fold activation over DMSO control) [1]: 2.6 fold
EC50 [2]: 280 nM

Compound: Cc1cc(N(C)C)c2cc(-c3ccc(N(C)C4CC(C)(C)NC(C)(C)C4)nn3)c(O)cc2n1 [Example 10-4, 4-(Dimethylamino)-2-methyl-6-(6-(methyl(2,2,6,6-tetramethylpiperidin-4-yl)amino)pyridazin-3-yl)quinolin-7-ol]
SMN Activity (fold activation over DMSO control) [1]: 2.7 fold
EC50 [2]: 12 nM

Compound: CN(c1ccc(-c2cc3cnccc3cc2O)nn1)C1CC(C)(C)N(C)C(C)(C)C1 [Example 3-1, 7-(6-(methyl(1,2,2,6,6-pentamethylpiperidin-4-yl)amino)pyridazin-3-yl)isoquinolin-6-ol]
SMN Activity (fold activation over DMSO control) [1]: 3.1 fold
EC50 [2]: 70 nM

Compound: CN(c1ccc(-c2cc3cnccc3cc2O)nn1)C1CC(C)(C)NC(C)(C)C1 [Example 3-2, 7-(6-(methyl(2,2,6,6-tetramethylpiperidin-4-yl)amino)pyridazin-3-yl)isoquinolin-6-ol]
SMN Activity (fold activation over DMSO control) [1]: 2.75 fold
EC50 [2]: 5 nM
Fold activation [3]: 2.8
EC50 [4]: 5 nM

EC50 [2]: 83 nM
Compound: CC1(C)CC(Oc2ccc(-c3cc4cnccc4cc3O)nn2)CC(C)(C)N1 [Example 3-3, 7-(6-((2,2,6,6-tetramethylpiperidin-4-yl)oxy)pyridazin-3-yl)isoquinolin-6-ol]
SMN Activity (fold activation over DMSO control) [1]: 2.5 fold

EC50 [2]: 46 nM
Compound: N#Cc1ccc2cc(O)c(-c3ccc(N4CCNCC4)nn3)cc2n1 [Example 27-1, 6-hydroxy-7-(6-(piperazin-1-yl)pyridazin-3-yl)quinoline-2-carbonitrile]
SMN Activity (fold activation over DMSO control) [1]: 2.49 fold

Compound: Cc1cc(C#N)c2cc(-c3ccc(N(C)C4CC(C)(C)NC(C)(C)C4)nn3)c(O)cc2n1 [Example 20-2, 7-hydroxy-2-methyl-6-(6-(methyl(2,2,6,6-tetramethylpiperidin-4-yl)amino)pyridazin-3-yl)quinoline-4-carbonitrile]
SMN Activity (fold activation over DMSO control) [1]: 2.68 fold
EC50 [2]: 48 nM

Compound: CN(c1ccc(-c2cc3ccc(C#N)nc3cc2O)nn1)C1CC(C)(C)NC(C)(C)C1 [Example 26-2, 7-hydroxy-6-(6-(methyl(2,2,6,6-tetramethylpiperidin-4-yl)amino)pyridazin-3-yl)quinoline-2-carbonitrile]
SMN Activity (fold activation over DMSO control) [1]: 3.14 fold
EC50 [2]: 7 nM

Compound: CCOc1cc(C)nc2cc(O)c(-c3ccc(N(C)C4CC(C)(C)NC(C)(C)C4)nn3)cc12 [Example 10-5, 4-Ethoxy-2-methyl-6-(6-(methyl(2,2,6,6-tetramethylpiperidin-4-yl)amino)pyridazin-3-yl)quinolin-7-ol]
SMN Activity (fold activation over DMSO control) [1]: 3.3 fold
EC50 [2]: 20 nM

Compound: Cc1cc(C2CC2)c2cc(-c3ccc(N(C)C4CC(C)(C)NC(C)(C)C4)nn3)c(O)cc2n1 [Example 20-3, 4-cyclopropyl-2-methyl-6-(6-(methyl(2,2,6,6-tetramethylpiperidin-4-yl)amino)pyridazin-3-yl)quinolin-7-ol]
SMN Activity (fold activation over DMSO control) [1]: 2.72 fold
EC50 [2]: 65 nM

Compound: CC(C)c1cnc2cc(O)c(-c3ccc(N(C)C4CC(C)(C)NC(C)(C)C4)nn3)cc2c1 [Example 8-2, 3-isopropyl-6-(6-(methyl(2,2,6,6-tetramethylpiperidin-4-yl)amino)pyridazin-3-yl)quinolin-7-ol]
SMN Activity (fold activation over DMSO control) [1]: 2.50 fold
EC50 [2]: 190 nM

Compound: CN(c1ccc(-c2cc3c(C4CC4)nccc3cc2O)nn1)C1CC(C)(C)NC(C)(C)C1 [Example 3-5, 1-cyclopropyl-7-(6-(methyl(2,2,6,6-tetramethylpiperidin-4-yl)amino)pyridazin-3-yl)isoquinolin-6-ol]
SMN Activity (fold activation over DMSO control) [1]: 2.54 fold
EC50 [2]: 14 nM

Compound: CN(c1ccc(-c2ccc3cccnc3c2)nn1)C1CC(C)(C)NC(C)(C)C1 [drawing 136 R = H]
Fold activation [3]: 2.5
EC50 [4]: 370 nM

Compound: Cc1cc(N2CCOCC2)c2cc(-c3ccc(N(C)C4CC(C)(C)NC(C)(C)C4)nn3)c(O)cc2n1 [Example 10-3, 2-Methyl-6-(6-(methyl(2,2,6,6-tetramethylpiperidin-4-yl)amino)pyridazin-3-yl)-4-morpholinoquinolin-7-ol]
SMN Activity (fold activation over DMSO control) [1]: 2.6 fold
EC50 [2]: 110 nM

Compound: CN(c1ccc(-c2cc3cc(C4CCOCC4)cnc3cc2O)nn1)C1CC(C)(C)NC(C)(C)C1 [Example 14-1, 6-(6-(methyl(2,2,6,6-tetramethylpiperidin-4-yl)amino)pyridazin-3-yl)-3-(tetrahydro-2H-pyran-4-yl)quinolin-7-ol]
SMN Activity (fold activation over DMSO control) [1]: 2.91 fold
EC50 [2]: 63 nM

Compound: Cc1cc(N2CCCC2)c2cc(-c3ccc(N(C)C4CC(C)(C)NC(C)(C)C4)nn3)c(O)cc2n1 [Example 10-2, 2-methyl-6-(6-(methyl(2,2,6,6-tetramethylpiperidin-4-yl)amino)pyridazin-3-yl)-4-(pyrrolidin-1-yl)quinolin-7-ol]
SMN Activity (fold activation over DMSO control) [1]: 2.6 fold
EC50 [2]: 65 nM

Compound: Cc1cnc2cc(-c3ccc(N(C)C4CC(C)(C)NC(C)(C)C4)nn3)c(O)cc2n1 [Example 18-3, 3-methyl-7-(6-(methyl(2,2,6,6-tetramethylpiperidin-4-yl)amino)pyridazin-3-yl)quinoxalin-6-ol]
SMN Activity (fold activation over DMSO control) [1]: 2.72 fold
EC50 [2]: 16 nM

EC50 [2]: 60 nM
Compound: CN1C[C@@H]2CN(c3ccc(-c4cc5cnccc5cc4O)nn3)C[C@@H]2C1 [Example 3-4, 7-(6-((3aR,6aS)-5-methylhexahydropyrrolo[3,4-c]pyrrol-2(1H)-yl)pyridazin-3-yl)isoquinolin-6-ol]
SMN Activity (fold activation over DMSO control) [1]: 2.3 fold

Compound: Oc1cc2cccnc2cc1-c1ccc(C2=CCNCC2)nn1 [Example 28-1, 7-(6-(1,2,3,6-tetrahydropyridin-4-yl)pyridazin-3-yl)quinolin-6-ol]
SMN Activity (fold activation over DMSO control) [1]: 1.9 fold
EC50 [2]: 155 nM

Compound: CN(c1ccc(-c2cc3ncc(Br)cc3cc2O)nn1)C1CC(C)(C)NC(C)(C)C1 [Example 15-2, 3-bromo-7-(6-(methyl(2,2,6,6-tetramethylpiperidin-4-yl)amino)pyridazin-3-yl)quinolin-6-ol]
SMN Activity (fold activation over DMSO control) [1]: 2.52 fold
EC50 [2]: 19 nM

EC50 [2]: 395 nM
Compound: N#Cc1ccc2cc(-c3ccc(N4CCNCC4)nn3)c(O)cc2n1 [Example 27-2, 7-hydroxy-6-(6-(piperazin-1-yl)pyridazin-3-yl)quinoline-2-carbonitrile]
SMN Activity (fold activation over DMSO control) [1]: 2.42 fold

Compound: CN(c1ccc(-c2cc3ccnc(C#N)c3cc2O)nn1)C1CC(C)(C)NC(C)(C)C1 [Example 26-1, 7-hydroxy-6-(6-(methyl(2,2,6,6-tetramethylpiperidin-4-yl)amino)pyridazin-3-yl)isoquinoline-1-carbonitrile]
SMN Activity (fold activation over DMSO control) [1]: 2.58 fold
EC50 [2]: 16 nM

Compound: CN(c1ccc(-c2cc3c(=O)n(C)ccc3cc2O)nn1)C1CC(C)(C)NC(C)(C)C1 [Example 35-1, 6-hydroxy-2-methyl-7-(6-(methyl(2,2,6,6-tetramethylpiperidin-4-yl)amino)pyridazin-3-yl)isoquinolin-1(2H)-one]
SMN Activity (fold activation over DMSO control) [1]: 2.43 fold
EC50 [2]: 3 nM

Compound: CN(c1ccc(-c2ccc3ccncc3c2)nn1)C1CC(C)(C)NC(C)(C)C1 [drawing 137 R = H]
Fold activation [3]: 2.7
EC50 [4]: 250 nM

Compound: CN(C)c1ccnc2cc(O)c(-c3ccc(N(C)C4CC(C)(C)NC(C)(C)C4)nn3)cc12 [Example 21-1, 4-(dimethylamino)-6-(6-(methyl(2,2,6,6-tetramethylpiperidin-4-yl)amino)pyridazin-3-yl)quinolin-7-ol]
SMN Activity (fold activation over DMSO control) [1]: 3.01 fold
EC50 [2]: 60 nM

Compound: Cc1cnc2cc(-c3ccc(N(C)C4CC(C)(C)NC(C)(C)C4)nn3)c(O)c(Br)c2c1 [Example 16-1, 5-bromo-3-methyl-7-(6-(methyl(2,2,6,6-tetramethylpiperidin-4-yl)amino)pyridazin-3-yl)quinolin-6-ol]
SMN Activity (fold activation over DMSO control) [1]: 2.44 fold
EC50 [2]: 258 nM

Compound: CN(c1ccc(-c2cc3c(Cl)ccnc3cc2O)nn1)C1CC(C)(C)NC(C)(C)C1 [Preparation 12, 4-chloro-6-(6-(methyl(2,2,6,6-tetramethylpiperidin-4-yl)amino)pyridazin-3-yl)quinolin-7-ol]
SMN Activity (fold activation over DMSO control) [1]: 2.6 fold
EC50 [2]: 30 nM
